Data published in patent publication US20190369111A1, “MOLECULAR KINETICS EVALUATION METHOD AND SCREENING METHOD” (Tokyo University of Science Foundation, priority 2016, published 2019).

Target: T1, wild-type K-Ras protein (Mus musculus, UniProt P32883)
T1 construct: intraperitoneally administered to C57BL/6J wild-type mice; from tissue; host or cells: C57BL/6J wild-type mice: spleen, pancreas, liver, kidneys, colon, lungs, heart
Test: Degradation of wild-type K-Ras protein in each tissue of mouse after administration, Western blot analysis
Format: in vivo
Method: TUS-007 was dissolved in DMSO, and then dissolved in corn oil so that the concentration of DMSO was 10 vol %, and then intraperitoneally administered to C57BL/6J wild-type mice (8 to 9 weeks old, male) (CLEA Japan, Inc.) in an amount of 40 mg/kg body weight or 80 mg/kg body weight (n=3 to 4). Furthermore, in addition to a group in which TUS-007 was administered, a group in which Ras-SOS had been administered in a dose of 80 mg/kg body weight was prepared. As a control, an injection carrier (corn oil containing 10 vol % DMSO) was used. The mice were kept under an environment of ad libitum access to food and water. The mice were dissected under deep anesthesia by Somnopentyl (Kyoritsu Seiyaku Corporation) 48 hours after administration. Abdominal section was performed, and then the spleen, pancreas, liver, kidneys, colon, lungs, and heart were sequentially extracted and flash frozen in liquid nitrogen. Each tissue frozen in liquid nitrogen was stored in a deep freezer at −80° C.
The frozen tissues (spleen: 0.02 g, other tissues: 0.04 g) were each triturated, and then 500 μL of TKM tissue lysis buffer (50 mM triethanolamine (pH 7.8), 50 mM KCl, 5 mM MgCl2, 0.25 M sucrose, 1 mM PMSF, Protein Inhibitors Cocktail-EDTA free (Nacalai Tesque, Inc.), 1 mM DTT, and a recombinant RNase inhibitor (0.2 U/μL, Takara Bio) were added, and dissolved by rotation for 15 minutes (1 rpm, 25° C.). Then, the resultant product was subjected to centrifugation (at 13800 rpm×30 minutes, 4° C.), and the supernatants (each tissue extract) were collected. The concentration of the extracted proteins was quantified by a spectrophotometer.
Each tissue extract collected was subjected to Western blot analysis. An SDS-PAGE gel was prepared using TGX™ FastCast™ Acrylamide Kit, 12% (Bio-Rad). Electrophoresis samples were prepared in a 6×SDS-PAGE sample buffer (62.5 mM Tris-HCl pH 6.8, 2% SDS, 5% 2-mercaptoethanol, 10% glycerol, 0.25% BPB), and placed on a heat block at 95° C. for 5 minutes. Electrophoresis was performed at 160 V for 60 minutes (electrophoresis buffer; 195 mM glycine, 25 mM Tris).
After electrophoresis, proteins were transferred to a PVDF membrane (Immobion™-P, Millipore) under conditions of 100 V and 1.5 hours using a tank-type blotting device and a transfer buffer (25 mM Tris-HCl, 195 mM glycine, 0.01% SDS, 15% methanol). The membrane was split into two at the position of a 25 kDa marker. The membrane after transfer was shaken and blocked in 5% skim milk/TBS-T (100 mM Tris-HCl, 150 mM NaCl, 0.1% Tween-20, pH 7.6) at room temperature for 30 minutes. After blocking, a primary antibody reaction was performed in 5% skim milk/TBS-T. As the primary antibody, an anti-K-Ras antibody (sc-30, SantaCruz, diluted 500 times) and an anti-GAPDH antibody (sc-32233, SantaCruz, diluted 20000 times) were used. The membrane was shaken at room temperature for 60 minutes (anti-K-Ras antibody) or at 4° C. overnight (anti-GAPDH antibody), and then the membrane was washed with TBS-T for 5 minutes. It is noted that washing was performed four times. After the primary antibody reaction, a secondary antibody reaction was performed in 1% skim milk/TBS-T. The membrane was shaken at room temperature for 30 minutes, and then the membrane was washed with TBS-T for 5 minutes. It is noted that washing was performed four times. Furthermore, the membrane was washed with TBS (100 mM Tris-HCl, 150 mM NaCl, pH 7.6) for 10 minutes. Subsequently, the membrane was treated with a chemiluminescence reagent Immobilon™ Western (Millipore), and then chemiluminescence was detected using a lumino image analyzer LAS-3000 (FUJIFILM Corporation). Detected bands were quantified with an image processing software ImageJ (NIH).

T1 sequence (P32883 whole entry): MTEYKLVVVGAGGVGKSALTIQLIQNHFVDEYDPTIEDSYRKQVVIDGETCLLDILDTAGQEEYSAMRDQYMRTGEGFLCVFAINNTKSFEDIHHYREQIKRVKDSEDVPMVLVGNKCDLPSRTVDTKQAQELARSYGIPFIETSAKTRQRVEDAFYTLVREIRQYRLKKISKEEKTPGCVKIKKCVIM

SMILES: CC[C@@H](C)[C@H](NC(=O)CCCCCCNC(=O)[C@H](CC(C)C)NC(=O)CNC(=O)c1cc(Cl)ccc1Cl)C(=O)Nc1ccc2[nH]c(Cc3c[nH]c4ccccc34)nc2c1 [TUS-007]
- amount of wild-type K-Ras protein in colon (intraperitoneal 40 or 80 mg/kg body weight, 48 hours after administration, colon): reduced in a concentration dependent manner
- amount of wild-type K-Ras protein in heart (intraperitoneal 40 or 80 mg/kg body weight, 48 hours after administration, heart): not reduced
- amount of wild-type K-Ras protein in kidneys (intraperitoneal 40 or 80 mg/kg body weight, 48 hours after administration, kidneys): reduced in a concentration dependent manner
- amount of wild-type K-Ras protein in liver (intraperitoneal 40 or 80 mg/kg body weight, 48 hours after administration, liver): not reduced
- amount of wild-type K-Ras protein in lungs (intraperitoneal 40 or 80 mg/kg body weight, 48 hours after administration, lungs): not reduced
- amount of wild-type K-Ras protein in pancreas (intraperitoneal 40 or 80 mg/kg body weight, 48 hours after administration, pancreas): reduced in a concentration dependent manner
- amount of wild-type K-Ras protein in spleen (intraperitoneal 40 or 80 mg/kg body weight, 48 hours after administration, spleen): reduced in a concentration dependent manner
- transfer property to tissues (molecular kinetics) (suggested from K-Ras degradation in tissues): showed a higher transfer property in the pancreas, colon, kidneys, and spleen as compared with the lungs, liver, and heart
